Patent US20090036407A1, “FLEA CONTROL METHOD” (priority 2007, published 2009)

System: eggs of C. felis
Assay: Eggs and larvae of C. felis, egg to adult development assay (Test A, Test Example 1)
Format: in vivo
Settings: 30 eggs x 3 replicates, 28 days
Experimental: Eggs and Larvae of C. felis—Egg to Adult Development Assay A larval support media was prepared consisting of 1 g dried bovine blood, 1 g dog biscuit and 5 g of fine sand. Two grams of the larval support media were placed into a 30 mL container for treatment with the test compound and drying. The test compound (3-bromo-N-[4-chloro-2-methyl-6-(methylcarbamoyl)phenyl]-1-(3-chloropyridin-2-yl)-1H-pyrazole-5-carboxamide) was prepared in acetone and serially diluted prior to testing. The concentrations used were as follows: 1 ug/uL, 0.5, 0.25, 0.125, 0.0625 ug/uL. 30 eggs of C. felis were placed into the culturing medium. Each concentration was replicated 3 times giving a total of 90 eggs per dose level. The untreated control was treated with acetone only. The containers were placed into a temperature and humidity controlled room and maintained for 28 days. After the incubation period had elapsed the containers were placed into a freezer for 1 hour. The adults and pupae were counted and % of adults and pupae that developed at each dose level was calculated. The activity was compared to Methoprene.

[1] = concentration 0.0625 (ug/uL) in treated larval support media
[2] = concentration 0.125 (ug/uL) in treated larval support media
[3] = concentration 0.25 (ug/uL) in treated larval support media
[4] = concentration 0.5 (ug/uL) in treated larval support media
[5] = concentration 1.0 (ug/uL) in treated larval support media

Compound | % eggs developed into adults [1] [%] | % eggs developed into adults [2] [%] | % eggs developed into adults [3] [%] | % eggs developed into adults [4] [%] | % eggs developed into adults [5] [%]
COC(C)(C)CCC[C@H](C)C/C=C/C(C)=C/C(=O)OC(C)C (racemic) [Methoprene] | 14.4 | 3.3 | 1.1 | 0.0 | 0.0
CNC(=O)c1cc(Cl)cc(C)c1NC(=O)c1cc(Br)nn1-c1ncccc1Cl [Test Compound, 3-bromo-N-[4-chloro-2-methyl-6-(methylcarbamoyl)phenyl]-1-(3-chloropyridin-2-yl)-1H-pyrazole-5-carboxamide] | 18.9 | 0.0 | 0.0 | 0.0 | 0.0
